Assay [1] has as its target CYP2C9 (Homo sapiens, UniProt P11712). As to the kind of experiment: CYP2C9 inhibition (fluorescent substrate MFC). Type of assay: in vitro ADME. The note with it: read-out: Cyp IC50 2C9. The method, boiled down:
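Test compounds, 10-point 1:1 serial dilutions in NADPH-regenerating cofactor mix, were preincubated 10 min at 37° C before recombinant enzyme and fluorogenic substrate reactions at 37° C (CYP1A2 15 min; CYP2C9 45 min; CYP2C19, 2D6 30 min). Product fluorescence was read at 409 ex with 460 em (1A2, 2C19) or 530 em (2C9, 2D6), and IC50 fitted from signal versus concentration.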

Assay [2] has as its target CYP3A4(BFC) (Homo sapiens, UniProt P08684). As to the kind of experiment: CYP3A4(BFC) inhibition. In kind it is in vitro ADME. The note with it: CYP3A4, substrate BFC; read-out: Cyp IC50 3A4(BFC). The method, boiled down:
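Inhibition of human CYP3A4 with the BFC substrate was measured by fluorescence loss of the metabolized product. Compounds at 100 mM in DMSO were diluted 1 μL into 82 μL acetonitrile, then 11 μL into 204 μL cofactor mix with NADPH regeneration solutions, and serially diluted 1:1 to 10 points. Plates were incubated 30 min at 37° C and read at 409 ex/460 em to obtain IC50.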

Assay [3] has as its target T1, BCR-KIT BaF3 cells (Homo sapiens, UniProt P10721).
T1 construct: fused on or other part: P11274 (Breakpoint cluster region protein)
Description: BaF3 BCR-KIT cell proliferation assay (ATPlite). As to conditions: read-out: Inhibition of Cell Proliferation IC50, BCR/BaF3 Kit. In kind it is cell-based. The method, boiled down:
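Growth inhibition over 3 days at 37 °C; IC50 from ATPlite luminescence, 8 concentrations (1:3 steps, max 10 μM). BaF3 fusion lines were tested without IL-3.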
Background: ATP-based viability assays read luminescence as a measure of living cells.

Bounds are passed on as bounds.

T1 sequence (P10721 589-937): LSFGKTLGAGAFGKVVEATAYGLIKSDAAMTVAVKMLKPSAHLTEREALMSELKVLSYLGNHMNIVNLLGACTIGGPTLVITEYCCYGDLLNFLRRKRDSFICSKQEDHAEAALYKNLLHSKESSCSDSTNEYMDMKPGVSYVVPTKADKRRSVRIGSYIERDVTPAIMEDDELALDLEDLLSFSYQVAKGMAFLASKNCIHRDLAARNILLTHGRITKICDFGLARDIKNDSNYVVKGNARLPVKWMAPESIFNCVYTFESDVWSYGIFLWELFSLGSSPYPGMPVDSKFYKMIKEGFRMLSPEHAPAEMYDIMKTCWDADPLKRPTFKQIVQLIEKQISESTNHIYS
CYP2C9, sequence (P11712 whole entry): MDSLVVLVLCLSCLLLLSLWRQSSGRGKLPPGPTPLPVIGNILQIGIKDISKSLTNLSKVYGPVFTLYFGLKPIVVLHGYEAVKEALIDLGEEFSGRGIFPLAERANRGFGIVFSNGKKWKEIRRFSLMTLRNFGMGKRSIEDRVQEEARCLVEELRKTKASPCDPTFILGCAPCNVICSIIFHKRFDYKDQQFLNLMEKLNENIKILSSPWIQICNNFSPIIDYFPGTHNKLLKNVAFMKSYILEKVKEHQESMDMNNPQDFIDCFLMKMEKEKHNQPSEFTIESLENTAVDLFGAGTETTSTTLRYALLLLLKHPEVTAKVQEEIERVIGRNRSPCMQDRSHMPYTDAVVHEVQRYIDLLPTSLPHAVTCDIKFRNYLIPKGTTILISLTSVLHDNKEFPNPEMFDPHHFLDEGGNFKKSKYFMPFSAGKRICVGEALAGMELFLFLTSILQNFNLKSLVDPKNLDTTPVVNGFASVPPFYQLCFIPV
CYP3A4(BFC), sequence (P08684 whole entry): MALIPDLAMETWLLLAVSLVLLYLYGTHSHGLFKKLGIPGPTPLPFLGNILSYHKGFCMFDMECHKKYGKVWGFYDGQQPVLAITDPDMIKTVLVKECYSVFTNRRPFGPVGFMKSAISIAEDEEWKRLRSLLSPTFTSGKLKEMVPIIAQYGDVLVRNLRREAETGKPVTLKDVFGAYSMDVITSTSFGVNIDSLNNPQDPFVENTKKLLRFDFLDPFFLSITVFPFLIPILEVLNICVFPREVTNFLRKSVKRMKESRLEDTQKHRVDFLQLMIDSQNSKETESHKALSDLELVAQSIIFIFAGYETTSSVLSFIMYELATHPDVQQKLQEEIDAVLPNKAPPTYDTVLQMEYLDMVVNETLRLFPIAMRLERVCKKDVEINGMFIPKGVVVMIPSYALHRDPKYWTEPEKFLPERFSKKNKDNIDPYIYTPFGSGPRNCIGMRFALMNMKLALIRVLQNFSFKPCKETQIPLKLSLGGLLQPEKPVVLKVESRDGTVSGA

For the compound `Clc1cnc2[nH]cc(Cc3cnc(NC4CCCCC4)nc3)c2c1` [Compound P-3001, [5-(5-chloro-1H-pyrrolo[2,3-b]pyridin-3-ylmethyl)-pyrimidin-2-yl]-cyclohexyl-amine], the IC50 was above 10000 nM in assay [1], above 10000 nM in assay [2] and above 1000 nM in assay [3].

Regarding `FC1(F)CCC(Nc2ncc(Cc3c[nH]c4ncc(Cl)cc34)cn2)CC1` [Compound P-3004], the IC50 was above 10000 nM in assay [1], above 10000 nM in assay [2] and above 1000 nM in assay [3].

Consider `Clc1cnc2[nH]cc(Cc3cnc(NC4CCCCCC4)nc3)c2c1` [Compound P-3006, [5-(5-Chloro-1H-pyrrolo[2,3-b]pyridin-3-ylmethyl)-pyrimidin-2-yl]-cycloheptyl-amine], for which the IC50 in assay [1] was above 10000 nM; in assay [2] it was above 10000 nM; in assay [3] it was above 1000 nM.

Regarding `Cc1cnc2[nH]cc(Cc3cnc(Nc4ccc(C(F)(F)F)nc4)nc3)c2c1` [Compound P-3018, [5-(5-Methyl-1H-pyrrolo[2,3-b]pyridin-3-ylmethyl)-pyrimidin-2-yl]-(6-trifluoromethyl-pyridin-3-yl)-amine], the IC50 in assay [1] was above 10000 nM; in assay [2], below 5000 nM; in assay [3] it was below 100 nM.

For `COc1ccc(Nc2ccc(Cc3c[nH]c4ncc(C)cc34)c(F)n2)cn1` [Compound P-3019, [6-fluoro-5-(5-methyl-1H-pyrrolo[2,3-b]pyridin-3-ylmethyl)-pyridin-2-yl]-(6-methoxy-pyridin-3-yl)-amine], the IC50 in assay [1] was above 10000 nM; in assay [2], above 10000 nM; in assay [3] it was below 1000 nM.

Consider `Cc1cnc2[nH]cc(Cc3cnc(Nc4ccc(C(O)(C(F)(F)F)C(F)(F)F)cc4)nc3)c2c1` [Compound P-3031, 1,1,1,3,3,3-Hexafluoro-2-{4-[5-(5-methyl-1H-pyrrolo[2,3-b]pyridin-3-ylmethyl)-pyrimidin-2-ylamino]-phenyl}-propan-2-ol], for which the IC50 in assay [3] is below 10 nM.

`Cc1cnc2[nH]cc(Cc3cnc(Nc4cc(C5CC5)n[nH]4)nc3)c2c1` [Compound P-3032, (5-Cyclopropyl-2H-pyrazol-3-yl)-[5-(5-methyl-1H-pyrrolo[2,3-b]pyridin-3-ylmethyl)-pyrimidin-2-yl]-amine]: the IC50 in assay [3] is below 1000 nM.

Turning to `CSc1ccc(Nc2ncc(Cc3c[nH]c4ncc(C)cc34)cn2)cc1` [Compound P-3033, [5-(5-Methyl-1H-pyrrolo[2,3-b]pyridin-3-ylmethyl)-pyrimidin-2-yl]-(4-methylsulfanyl-phenyl)-amine], the IC50 in assay [3] is below 10 nM.

Consider `Cc1cnc2[nH]cc(Cc3cnc(Nc4ccc(S(C)(=O)=O)cc4)nc3)c2c1` [Compound P-3034, (4-Methanesulfonyl-phenyl)-[5-(5-methyl-1H-pyrrolo[2,3-b]pyridin-3-ylmethyl)-pyrimidin-2-yl]-amine], for which, in assay [3], the IC50 was below 100 nM.

Regarding `CCn1ccc(Nc2ncc(Cc3c[nH]c4ncc(C)cc34)cn2)n1` [Compound P-3035, (1-Ethyl-1H-pyrazol-3-yl)-[5-(5-methyl-1H-pyrrolo[2,3-b]pyridin-3-ylmethyl)-pyrimidin-2-yl]-amine], in assay [3], the IC50 is below 1000 nM.

Take `CCn1cc(Nc2ncc(Cc3c[nH]c4ncc(C)cc34)cn2)cn1` [Compound P-3036, (1-Ethyl-1H-pyrazol-4-yl)-[5-(5-methyl-1H-pyrrolo[2,3-b]pyridin-3-ylmethyl)-pyrimidin-2-yl]-amine]: the IC50 in assay [3] is below 100 nM.

Take `Cc1cnc2[nH]cc(Cc3cnc(Nc4cc(C(F)(F)F)n[nH]4)nc3)c2c1` [Compound P-3037, [5-(5-Methyl-1H-pyrrolo[2,3-b]pyridin-3-ylmethyl)-pyrimidin-2-yl]-(5-trifluoromethyl-2H-pyrazol-3-yl)-amine]: in assay [3], the IC50 was above 1000 nM.

With `Cc1cnc2[nH]cc(Cc3cnc(Nc4cc(OC(C)C)n[nH]4)nc3)c2c1` [Compound P-3038, (5-Isopropoxy-2H-pyrazol-3-yl)-[5-(5-methyl-1H-pyrrolo[2,3-b]pyridin-3-ylmethyl)-pyrimidin-2-yl]-amine], in assay [3], the IC50 was below 1000 nM.

`CCOc1ccc(Nc2ccc(Cc3c[nH]c4ncc(C)cc34)c(F)n2)cn1` [Compound P-3039, (6-ethoxy-pyridin-3-yl)-[6-fluoro-5-(5-methyl-1H-pyrrolo[2,3-b]pyridin-3-ylmethyl)-pyridin-2-yl]-amine]: the IC50 is above 10000 nM in assay [1], above 10000 nM in assay [2] and below 1000 nM in assay [3].

On to `COc1ccc(Nc2ccc(C(=O)c3c[nH]c4ncc(C)cc34)c(F)n2)cn1` [Compound P-3040, [2-Fluoro-6-(6-methoxy-pyridin-3-ylamino)-pyridin-3-yl]-(5-methyl-1H-pyrrolo[2,3-b]pyridin-3-yl)-methanone], for which the IC50 in assay [1] was above 10000 nM; in assay [2] it was above 10000 nM; in assay [3], above 1000 nM.

With `Cc1cnc2[nH]cc(Cc3ccc(Nc4ccc(C)nc4)nc3F)c2c1` [Compound P-3041, [6-Fluoro-5-(5-methyl-1H-pyrrolo[2,3-b]pyridin-3-ylmethyl)-pyridin-2-yl]-(6-methyl-pyridin-3-yl)-amine], the IC50 in assay [1] is above 10000 nM; in assay [2], 5000 to 10000 nM; in assay [3], below 1000 nM.

Turning to `Cc1ccc(Nc2ccc(Cc3c[nH]c4ncc(Cl)cc34)c(F)n2)cn1` [Compound P-3042, [5-(5-Chloro-1H-pyrrolo[2,3-b]pyridin-3-ylmethyl)-6-fluoro-pyridin-2-yl]-(6-methyl-pyridin-3-yl)-amine], the IC50 in assay [3] is below 1000 nM.

As for `Cc1cnc2[nH]cc(C(=O)c3ccc(Nc4ccc(C)nc4)nc3F)c2c1` [Compound P-3043, [2-Fluoro-6-(6-methyl-pyridin-3-ylamino)-pyridin-3-yl]-(5-methyl-1H-pyrrolo[2,3-b]pyridin-3-yl)-methanone], the IC50 was above 10000 nM in assay [1], above 10000 nM in assay [2] and below 1000 nM in assay [3].

`CCOc1ccc(Nc2ccc(C(=O)c3c[nH]c4ncc(C)cc34)c(F)n2)cn1` [Compound P-3045, [6-(6-ethoxy-pyridin-3-ylamino)-2-fluoro-pyridin-3-yl]-(5-methyl-1H-pyrrolo[2,3-b]pyridin-3-yl)-methanone]: in assay [3], the IC50 was below 1000 nM.

Take `O=C(c1ccc(Nc2ccc(C3CC3)nc2)nc1F)c1c[nH]c2ncccc12` [Compound P-3052, [6-(6-Cyclopropyl-pyridin-3-ylamino)-2-fluoro-pyridin-3-yl]-(1H-pyrrolo[2,3-b]pyridin-3-yl)-methanone]: the IC50 in assay [1] was 5000 to 10000 nM; in assay [2], above 10000 nM.

As to `Fc1nc(Nc2ccc(C3CC3)nc2)ccc1Cc1c[nH]c2ncccc12` [Compound P-3053, (6-Cyclopropyl-pyridin-3-yl)-[6-fluoro-5-(1H-pyrrolo[2,3-b]pyridin-3-ylmethyl)-pyridin-2-yl]-amine], the IC50 in assay [1] and in assay [2] was above 10000 nM in each case.

For `CCOc1ncnc2[nH]cc(Cc3ccc(Nc4ccc(Br)nc4)nc3F)c12` [Compound P-4020, (6-Bromo-pyridin-3-yl)-[5-(4-ethoxy-7H-pyrrolo[2,3-d]pyrimidin-5-ylmethyl)-6-fluoro-pyridin-2-yl]-amine], the IC50 in assay [3] is below 1000 nM.

For the compound `CCOc1ncnc2[nH]cc(Cc3ccc(Nc4cccnc4)nc3F)c12` [Compound P-4021, [5-(4-Ethoxy-7H-pyrrolo[2,3-d]pyrimidin-5-ylmethyl)-6-fluoro-pyridin-2-yl]-pyridin-3-yl-amine], the IC50 in assay [3] is above 1000 nM.

Take `CCOc1ccc(Nc2ccc(Cc3c[nH]c4ncnc(C5CC5)c34)c(F)n2)cn1` [Compound P-4026, [5-(4-Cyclopropyl-7H-pyrrolo[2,3-d]pyrimidin-5-ylmethyl)-6-fluoro-pyridin-2-yl]-(6-ethoxy-pyridin-3-yl)-amine]: the IC50 in assay [3] is below 1000 nM.

Regarding `CCOc1ccc(Nc2ccc(C(=O)c3c[nH]c4ncnc(C5CC5)c34)c(F)n2)cn1` [Compound P-4027, (4-Cyclopropyl-7H-pyrrolo[2,3-d]pyrimidin-5-yl)-[6-(6-ethoxy-pyridin-3-ylamino)-2-fluoro-pyridin-3-yl]-methanone], the IC50 in assay [3] was below 1000 nM.

With `CCOc1ccc(Nc2ccc(C(=O)c3c[nH]c4ncnc(C)c34)c(F)n2)cn1` [Compound P-4032, [6-(6-Ethoxy-pyridin-3-ylamino)-2-fluoro-pyridin-3-yl]-(4-methyl-7H-pyrrolo[2,3-d]pyrimidin-5-yl)-methanone], the IC50 in assay [3] was below 1000 nM.

In the case of `Cc1cncc(Nc2ccc(Cc3c[nH]c4ncnc(C5CC5)c34)c(F)n2)c1` [Compound P-4038, [5-(4-Cyclopropyl-7H-pyrrolo[2,3-d]pyrimidin-5-ylmethyl)-6-fluoro-pyridin-2-yl]-(5-methyl-pyridin-3-yl)-amine], in assay [3], the IC50 was below 1000 nM.

`Cc1cncc(Nc2ccc(C(=O)c3c[nH]c4ncnc(C5CC5)c34)c(F)n2)c1` [Compound P-4039, (4-Cyclopropyl-7H-pyrrolo[2,3-d]pyrimidin-5-yl)-[2-fluoro-6-(5-methyl-pyridin-3-ylamino)-pyridin-3-yl]-methanone]: the IC50 in assay [3] is below 1000 nM.

Source of the values: US8901118B2, “Compounds and methods for kinase modulation, and indications therefor” (Plexxikon Inc., priority 2010, dated 2014).
